Read-outs that look alike come from different tables or passages of the source.
Experiments:
[1] = In vitro metabolic stability in liver microsomes (calculation of CL and Fmax); format: in vitro ADME, human; settings: 1 μM, 0.5 mg/mL protein, maximal oral bioavailability calculated from half-life
Procedure: In Vitro Metabolic Stability Assays Determination of in vitro metabolic stability in microsomes (including calculation of hepatic in vivo blood clearance (CL) and of maximal oral bioavailability (Fmax))
The metabolic assay was started shortly afterwards by adding the test compound to the incubation at a final volume of 1 mL. Organic solvent in the incubations was limited to […] dimethylsulfoxide (DMSO) and ≤1% acetonitrile. […] Samples were frozen at −20° C. overnight, subsequently centrifuged for 15 minutes at 3000 rpm and the supernatant was analyzed with an Agilent 1200 HPLC-system with LCMS/MS detection.
The half-life of a test compound was determined from the concentration-time plot. From the half-life (kel: slope of concentration-time plot; half-life=ln 2/kel) the intrinsic clearances were calculated. Together with the additional parameters liver blood flow, specific liver weight and microsomal protein content the hepatic in vivo blood clearance (CL) and the maximal oral bioavailability (Fmax) were calculated for the different species.
(§1) Metabolic instability is often the main clearance mechanism of xenobiotica leading to a high CL and low bioavailability which may eventually result in a short half-life and a low exposure after oral administration. Thus, reducing the susceptibility of metabolic degradation usually leads to a more favourable pharmacokinetic profile. When using liver microsomes as incubation matrix main phase I metabolic reactions, typically oxidoreductive reactions by cytochrome P450 enzymes and flavin mono-oxygenases (FMO) and hydrolytic reactions by esterases/amidases/epoxidhydrolases, are described. When the incubation of the test compound is performed in a hepatocyte matrix all potential hepatic metabolic processes (phase I and phase II) are covered.

rat hepatocytes = assay: In vitro metabolic stability in rat hepatocytes; format: in vitro ADME, Han Wistar rats; settings: 1 μM, 1.0×10^6 cells/mL, maximal oral bioavailability calculated from half-life
Procedure: Determination of in vitro metabolic stability in rat hepatocytes (including calculation of hepatic in vivo blood clearance (CL))
Hepatocytes from Han Wistar rats were isolated via a 2-step perfusion method. After perfusion, the liver was carefully removed from the rat: the liver capsule was opened and the hepatocytes were gently shaken out into a Petri dish with ice-cold Williams' medium E (WME). The resulting cell suspension was filtered through sterile gaze in 50 mL falcon tubes and centrifuged at 50×g for 3 min at room temperature. The cell pellet was resuspended in 30 mL WME and centrifuged through a Percoll® gradient for 2 times at 100×g. The hepatocytes were washed again with WME and resuspended in medium containing 5% FCS. Cell viability was determined by trypan blue exclusion.
The test compound was added to a final concentration of 1 μM. […] Samples were frozen at −20° C. overnight, subsequently centrifuged for 15 minutes at 3000 rpm and the supernatant was analyzed with an Agilent 1200 HPLC-system with LCMS/MS detection.
The half-life of a test compound was determined from the concentration-time plot. From the half-life (kel: slope of concentration-time plot; half-life=ln 2/kel) the intrinsic clearances were calculated. Together with the additional parameters liver blood flow, amount of liver cells in vivo and in vitro.
as §1

[2] = system: CFA-induced mechanical hyperalgesia; assay: Rat CFA in vivo model (mechanical hyperalgesia, paw withdrawal threshold); design: species or system Male Sprague Dawley rats; settings: dosed 24 hours after CFA injection
Procedure: Rat CFA In Vivo Model Male Sprague Dawley rats were used. Mechanical hyperalgesia was induced by injecting 25 μl of Complete Freund's Adjuvant (CFA) into the plantar surface of one hind paw. Mechanical hyperalgesia was measured using the Pressure Application Measurement apparatus (Ugo Basile, Gemonio, Italy). Briefly, a linearly increasing pressure was applied to an area of ˜50 mm2 of the plantar side of the hind paw until a behavioural response (paw withdrawal) was observed or until the pressure reached 1000 gf. The pressure at which the behavioural response occurred was recorded as the “Paw Withdrawal Threshold” (PWT). Both CFA-injected and contralateral PWTs were determined for each rat, in each treatment group and at each time point of the studies. […] Compounds were dosed 24 hours after CFA injection. Data were expressed as the mean PWT for each treatment group and at each time point. Data were analysed by performing a repeated measures two way ANOVA (time×treatment). Planned comparison of means (each versus vehicle) was performed by using a Dunnett's post hoc test, provided that a main effect was detected. […] More preferred examples of the present invention show rat CFA in vivo efficacy in the ‘Paw withdrawal threshold 6 hours post drug’ measure when dosed at 3 mg/kg p.o.

[3] = system: taste sensation via the tongue; settings: clinical PhII trials, attributed to blockade of P2X2/3 channels; cited from earlier work
[4] = Human liver cytosol stability assay; format: in vitro ADME; settings: human liver cytosol 1 mg/mL, 1 or 10 μM, 37° C.
Procedure: Human Liver Cytosol Stability Assay
Method description: Human liver cytosol (pooled, >30 male and female donors) was incubated with individual test compounds in order to compare the extent of depletion of test compound and formation of the respective oxidised metabolite. […] An incubation volume of 1000 μL was used. The test compound was added from a stock solution in acetonitrile at 1 or 10 μM concentration in the incubation. Incubations were performed at 37° C. Reactions were stopped at 0 h and 4 h after incubation by addition of 100 μL acetonitrile to 250 μL of incubation mixture. Precipitated proteins were removed by centrifugation at approximately 3000 rpm. The supernatants were stored at approximately −20° C. until they were analysed. […]
Data analysis: The depletion of the test compound and formation of the corresponding metabolites were determined by decrease or increase of the corresponding peak area in the chromatogram after UV detection at approximately 300 nm 4 h after incubation compared to that at 0 h after incubation. […]

human P2X3 receptor = human P2X3 receptor (Homo sapiens (Human), UniProt P56373); assay: Intracellular calcium measurement (FLIPR, Fluo-4) of antagonist activity at human P2X3 receptors; format: cell-based
How it was run: (§2)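 Cells expressing human P2X3 or P2X2/3, loaded with Fluo-4, preincubated 30 min at 37° C. with compound (1% DMSO final), then challenged with α,β-Me-ATP at its EC80. Peak FLIPR fluorescence over 90 sec gave % response; IC50, maximal inhibition and Hill slope from triplicates.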

human P2X2/3 receptor = human P2X2/3 receptor (Homo sapiens (Human), UniProt P56373+Q9UBL9); assay: Intracellular calcium measurement (FLIPR, Fluo-4) of antagonist activity at human P2X2/3 receptors; format: cell-based; settings: human P2X2/3, FLIPR calcium assay, agonist α,β-Me-ATP; read-out: hP2X2/3 IC50
How it was run: as §2

[5] = Bidirectional Caco-2 cell permeability assay; format: in vitro ADME; settings: human
Procedure: Bidirectional Caco-2 Cell Permeability Assay
Caco-2 cells (purchased from DSMZ Braunschweig, Germany) were seeded at a density of 4.5×10^4 cell per well on 24 well insert plates, 0.4 μm pore size, and grown for 15 days in Dulbecco's modified Eagle medium supplemented with 10% fetal bovine serum, 1% GlutaMAX (100×, purchased from GIBCO), 100 U/ml penicillin, 100 μg/ml streptomycin (purchased from GIBCO) and 1% non-essential amino acids (100×). Cells were maintained at 37° C. in a humidified 5% CO2 atmosphere. Medium was changed every 2-3 days. […] Test compounds were dissolved in DMSO and added to the donor chamber representing either the apical or basolateral compartment in a final concentration of 2 μM. Before and after 2 h incubation at 37° C. samples were taken from both compartments (donor and receiver chamber). Analysis of compound concentrations was done after precipitation with methanol. Analysis was performed by high-pressure liquid chromatography and a tandem mass spectrometric detector using an Agilent 1200 liquid chromatography system and an AB Sciex API4000 triple-quadrupole mass spectrometer applying the parameters, which were optimized to achieve maximum signal intensity of the corresponding test compound. Permeability (Papp) was calculated in the apical to basolateral (A→B) and basolateral to apical (B→A) directions. […] The efflux ratio basolateral (B) to apical (A) was calculated by dividing the Papp B-A by the Papp A-B.
The bidirectional Caco-2 cell permeability assay is a well-established method for predicting the in vivo absorption of drugs across the gut wall by measuring the rate of transport of a compound across the Caco-2 monolayer. Since differentiated Caco-2 cells express functional efflux transport proteins like P-gp, they are also used for identification of compounds with efflux liabilities. Intestinal efflux can decrease systemic plasma concentrations of an orally dosed compound by affecting intestinal absorption of a compound.

[6] = human P2X3, FLIPR calcium assay, agonist α,β-Me-ATP, read-out: hP2X3 IC50
[7] = read-out: human P2X3 receptor IC50

Chain of human P2X2/3 receptor (P56373 whole entry): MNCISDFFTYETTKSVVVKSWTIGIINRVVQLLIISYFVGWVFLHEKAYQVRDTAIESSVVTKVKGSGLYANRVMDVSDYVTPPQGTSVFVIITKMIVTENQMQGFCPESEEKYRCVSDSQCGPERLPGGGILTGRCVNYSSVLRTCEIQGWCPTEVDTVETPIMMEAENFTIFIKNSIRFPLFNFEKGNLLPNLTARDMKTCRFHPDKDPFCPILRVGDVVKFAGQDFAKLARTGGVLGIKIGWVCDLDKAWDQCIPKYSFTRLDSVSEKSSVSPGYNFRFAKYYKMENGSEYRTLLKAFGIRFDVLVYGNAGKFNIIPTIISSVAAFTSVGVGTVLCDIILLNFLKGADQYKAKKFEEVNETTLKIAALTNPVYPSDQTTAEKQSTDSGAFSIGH
Chain of human P2X2/3 receptor (Q9UBL9 whole entry): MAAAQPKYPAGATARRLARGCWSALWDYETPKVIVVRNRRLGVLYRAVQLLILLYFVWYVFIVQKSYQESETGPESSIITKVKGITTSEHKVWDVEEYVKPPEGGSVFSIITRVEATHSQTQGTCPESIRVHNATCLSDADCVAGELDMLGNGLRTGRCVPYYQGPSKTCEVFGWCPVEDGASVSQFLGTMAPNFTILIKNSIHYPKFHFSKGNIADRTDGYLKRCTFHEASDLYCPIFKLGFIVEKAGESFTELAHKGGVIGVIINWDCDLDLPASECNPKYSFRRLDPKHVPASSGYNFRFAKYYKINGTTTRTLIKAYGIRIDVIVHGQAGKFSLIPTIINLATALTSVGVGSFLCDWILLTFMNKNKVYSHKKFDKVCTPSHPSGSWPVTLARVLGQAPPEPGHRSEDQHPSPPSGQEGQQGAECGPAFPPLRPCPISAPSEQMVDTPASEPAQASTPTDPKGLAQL
Chain of human P2X3 receptor (P56373 whole entry): as the sequence (P56373 whole entry) above

| Human liver microsome Fmax [1] | Rat hepatocyte Fmax (rat hepatocytes) | IC50 (human P2X3 receptor; [6]) | IC50 (human P2X2/3 receptor) | Compound | also measured |
| --- | --- | --- | --- | --- | --- |
| 74% | 43% |  |  | Cc1cnc(-c2cc(OC(C)C(C)O)cc(C(=O)N[C@H](C)c3ccc(C(F)(F)F)nn3)c2)s1 (single isomer, unassigned) [Example 183] |  |
| 94% | 52% |  |  | Cc1cnc(-c2cc(OC(C)C(C)O)cc(C(=O)N[C@H](C)c3cnc(C(F)(F)F)nc3)c2)s1 (single isomer, unassigned) [Example 339] |  |
| 90% | 64% |  |  | Cc1cnc(-c2cc(OC(C)C(C)O)cc(C(=O)N[C@H](C)c3cnc(C(F)(F)F)nc3)c2)s1 (single isomer, unassigned) [Example 340] |  |
| 67% | 56% |  |  | Cc1cnc(-c2cc(O[C@H]3CCOC3)cc(C(=O)N[C@H](C)c3cnc(C(F)(F)F)nc3)c2)s1 [Example 26, 3-(5-Methyl-1,3-thiazol-2-yl)-5-[(3S)-tetrahydrofuran-3-yloxy]-N-{(1R)-1-[2-(trifluoromethyl)pyrimidin-5-yl]ethyl}benzamide] | Test compound turnover after 4 h [4]: 12% |
|  |  | 14 nM | 451 nM | Cc1cnc(-c2cc(OC3COC3)cc(C(=O)N[C@H](C)c3cnc(C(F)(F)F)nc3)c2)s1 [Example 48, 3-(5-Methyl-1,3-thiazol-2-yl)-5-(oxetan-3-yloxy)-N-{(1R)-1-[2-(trifluoromethyl)pyrimidin-5-yl]ethyl}benzamide] | IC50 (human P2X3 receptor; [7]): 14 nM; Paw withdrawal threshold 6 hour-post drug ([2]; 3 mg/kg p.o.): 817 ± 69 gf (****) |

Further lines, the compound ahead of its results:

| Compound | Human liver microsome Fmax [1] | Rat hepatocyte Fmax (rat hepatocytes) | IC50 (human P2X3 receptor; [6]) | IC50 (human P2X2/3 receptor) | also measured |
| --- | --- | --- | --- | --- | --- |
| CC(O)C(C)Oc1cc(C(=O)N[C@H](C)c2cnc(C(F)(F)F)nc2)cc(-c2ncc(Cl)s2)c1 (single isomer, unassigned) [Example 185] |  |  |  |  | Paw withdrawal threshold 6 hour-post drug ([2]; 3 mg/kg p.o.): 630 ± 81 (*) gf |
| COc1cc(C(C)C)c(Oc2cnc(N)nc2N)cc1S(N)(=O)=O [AF-219] |  |  |  |  | effect on taste in treated subjects [3]: leads to taste disturbances |
| Cc1cnc(-c2cc(OC[C@H]3CN(C)CCO3)cc(C(=O)N[C@H](C)c3cnc(C(F)(F)F)nc3)c2)s1 [Example 348, 3-{[(2R)-4-methylmorpholin-2-yl]methoxy}-5-(5-methyl-1,3-thiazol-2-yl)-N-{(1R)-1-[2-(trifluoromethyl)pyrimidin-5-yl]ethyl}benzamide] |  |  | 7 nM | 760 nM | IC50 (human P2X3 receptor; [7]): 7 nM; Paw withdrawal threshold 6 hour-post drug ([2]; 0.3 mg/kg p.o.): 599 ± 47 gf (*); Paw withdrawal threshold 6 hour-post drug ([2]; 1 mg/kg p.o.): 601 ± 28 gf (**); Paw withdrawal threshold 6 hour-post drug ([2]; 3 mg/kg p.o.): 633 ± 59 gf (*) |
| Cc1cnc(-c2cc(OC[C@@H]3CN(C)CCO3)cc(C(=O)N[C@@H](C)c3cnc(C(F)(F)F)nc3)c2)s1 [Example 417, 3-{[(2S)-4-methylmorpholin-2-yl]methoxy}-5-(5-methyl-1,3-thiazol-2-yl)-N-{(1S)-1-[2-(trifluoromethyl)pyrimidin-5-yl]ethyl}benzamide] |  |  |  | ≥ 10000 nM | IC50 (human P2X3 receptor; read-out: hP2X3 IC50): 434 nM |
| CCc1cnc(-c2cc(OC[C@@H]3CN(C)CCO3)cc(C(=O)N[C@H](C)c3ccc(C(F)(F)F)nn3)c2)s1 [Example 418, 3-(5-Ethyl-1,3-thiazol-2-yl)-5-{[(2S)-4-methylmorpholin-2-yl]methoxy}-N-{(1R)-1-[6-(trifluoromethyl)pyridazin-3-yl]ethyl}benzamide] |  |  | 23 nM | 1560 nM |  |
| CCc1cnc(-c2cc(OC[C@H]3CN(C)CCO3)cc(C(=O)N[C@H](C)c3ccc(C(F)(F)F)nn3)c2)s1 [Example 419, 3-(5-ethyl-1,3-thiazol-2-yl)-5-{[(2R)-4-methylmorpholin-2-yl]methoxy}-N-{(1R)-1-[6-(trifluoromethyl)pyridazin-3-yl]ethyl}benzamide] | 74% | 51% | 9 nM | 1140 nM | efflux ratio at 2 h, 2 μM ([5]; Caco-2, pH 7.2, Papp B-A divided by Papp A-B): 1.7; Papp A→B at 2 h, 2 μM ([5]; Caco-2, apical to basolateral, 2 μM, 2 h, 37° C., pH 7.2): 10.4 ×10⁻⁶ cm/s; Papp B→A at 2 h, 2 μM ([5]; Caco-2, basolateral to apical, 2 μM, 2 h, 37° C., pH 7.2): 17.5 ×10⁻⁶ cm/s |

Source: US10174016B2 (BAYER AKTIENGESELLSCHAFT, priority 2014, dated 2019)
